What all share (assay type): cell-based
Assay [1] concerns LP Bacteria in form of biofilm. The assay is described as follows: Effect of additives (cranberries, ascorbic acid) on Bacteria in form of biofilm survival and growth. An excerpt:
High vaginal pH is associated with an increase of vaginal pathogens and the acidity of the vagina has long been understood to be a protective mechanism against colonization of anaerobes pathogens while creating a favourable environment for the lactobacilli to thrive. Examining the effect of different additives (cranberries and ascorbic acid) on Bacteria in form of biofilm LP (as part of a small scale). […] The aim is to add one of these additives along with the Bacteria in form of biofilm in the suppository composition. As such, their effect on Bacteria in form of biofilm survival and growth was tested.

The subject of assay [2] is Lactobacillus iners. The assay is described as follows: Antibiotic MIC strip assay, planktonic LI. How it is done: (§1) For antibiotic assay, and overnight culture was diluted to an optical start density (OD) of 0.13. […] Plates were incubated at 37° C. for 24 h before minimum inhibitory concentration (MIC) value were determined.
In assay [3] the test system is Lactobacillus jensenii. Put plainly: Antibiotic MIC strip assay, planktonic LJ. The note with it: for MIC: Lactobacillus jensenii. As to the method:
as §1

In assay [4] the test system is Lactobacillus crispatus. Put plainly: Antibiotic MIC strip assay, planktonic LCr. To be noted: for MIC: Lactobacillus crispatus. How it is done: as §1
Assay [5] relates to Lactobacillus gasseri. Put plainly: Antibiotic MIC strip assay, planktonic LG. To be noted: for MIC: Lactobacillus gasseri. How it is done: as §1
Assay [6] deals with Lactobacillus rhamnosus. Put plainly: Antibiotic MIC strip assay, planktonic LRh. As to the method: as §1
Where [7] appears, read: planktonic LI, MIC strips, 24 h 37° C., read-out: MIC.
Where [8] appears, read: planktonic LJ, MIC strips, 24 h 37° C., read-out: MIC.
[9] abbreviates: planktonic LCr, MIC strips, 24 h 37° C., read-out: MIC.
Setting [10] is: planktonic LG, MIC strips, 24 h 37° C., read-out: MIC.
The mark [11] stands for this setting: Lacticaseibacillus rhamnosus, planktonic LRh, Table 7, read-out: MIC.
The mark [12] stands for this setting: Lacticaseibacillus rhamnosus, planktonic LRh, read-out: MIC.

In brackets after ≈: the same amount, converted by molar mass. Read-outs that look alike come from different tables or passages of the source.

As to `O=C1O[C@H]([C@@H](O)CO)C(O)=C1O` [AA, Ascorbic Acid], in assay [1], the “effect of addition of supplement on Bacteria in form of biofilm growth” value is given as “did not affect”.
As usually defined, the MIC is the least concentration at which growth counts as inhibited. Take `CC1(C)S[C@@H]2[C@H](NC(=O)C(C(=O)O)c3ccccc3)C(=O)N2[C@H]1C(=O)O` (stereo partly drawn) [CB, carbenicillin]: the minimum inhibitory concentration (MIC) in assay [2] (setting [7]) amounted to 64 µg/mL (≈ 169 µM); in assay [3] (setting [8]) it was 8 µg/mL (≈ 21.1 µM); in assay [4] (setting [9]), 4 µg/mL (≈ 10.6 µM); in assay [5] (setting [10]), 4 µg/mL (≈ 10.6 µM); in assay [6] (setting [11]) it was 4 µg/mL (≈ 10.6 µM); in assay [6] (setting [12]), 4 µg/mL (≈ 10.6 µM).
Turning to `O=C(O)c1cn(C2CC2)c2cc(N3CCNCC3)c(F)cc2c1=O` [CIP, ciprofloxacin], the minimum inhibitory concentration (MIC) in assay [3] (setting [8]) was above 256 µg/mL; in assay [4] (setting [9]) it was above 256 µg/mL; in assay [5] (setting [10]), above 256 µg/mL; in assay [6] (setting [11]), 2 µg/mL (≈ 6.04 µM); in assay [6] (setting [12]), 0.25 µg/mL (≈ 0.754 µM). For the same molecule, the “susceptibility of planktonic bacteria to antibiotic” value is recorded as “not susceptible” in assay [3] (planktonic LJ), “not susceptible” in assay [4] (planktonic LCr) and “full resistance” in assay [5] (planktonic LG).
Take `CO[C@@H]1[C@@H](OC(N)=O)[C@@H](O)[C@H](Oc2ccc3c(O)c(NC(=O)c4ccc(O)c(CC=C(C)C)c4)c(=O)oc3c2C)OC1(C)C` [NVB, novobiocin]: the minimum inhibitory concentration (MIC) in assay [2] (setting [7]) came out at 16 µg/mL (≈ 26.1 µM); in assay [3] (setting [8]), 2 µg/mL (≈ 3.26 µM); in assay [4] (setting [9]) it was 2 µg/mL (≈ 3.26 µM); in assay [5] (setting [10]) it was 2 µg/mL (≈ 3.26 µM); in assay [6] (setting [11]) it was 2 µg/mL (≈ 3.26 µM); in assay [6] (setting [12]), 2 µg/mL (≈ 3.26 µM).
Take `CN[C@H](CC(C)C)C(=O)N[C@H]1C(=O)N[C@@H](CC(N)=O)C(=O)N[C@H]2C(=O)N[C@H]3C(=O)N[C@H](C(=O)N[C@H](C(=O)O)c4cc(O)cc(O)c4-c4cc3ccc4O)[C@H](O)c3ccc(c(Cl)c3)Oc3cc2cc(c3O[C@@H]2O[C@H](CO)[C@@H](O)[C@H](O)[C@H]2O[C@H]2C[C@](C)(N)[C@H](O)[C@H](C)O2)Oc2ccc(cc2Cl)[C@H]1O` [VAN, vancomycin]: the MIC in assay [2] (24 h) is 4 µg/mL (≈ 2.76 µM); in assay [3] (24 h), 1.5 µg/mL (≈ 1.04 µM); in assay [4] (24 h) it was 1.5 µg/mL (≈ 1.04 µM); in assay [5] (24 h), 1.5 µg/mL (≈ 1.04 µM); in assay [6] (Lacticaseibacillus rhamnosus), above 256 µg/mL; in assay [6] (planktonic LRh, Table 7), above 256 µg/mL.

The values are drawn from patent publication US10709744B1, “Probiotic biofilm suppositories” (priority 2019, dated 2020).
